Assay results published in ChEMBL document CHEMBL5576066, “Synthesis and evaluation of 3-hydroxyquinolin-2(1H)-one derivatives as inhibitors of tyrosinase” (Bioorg Med Chem Lett, 2024).

Molecular target: T1, Mushroom tyrosinase (Agaricus bisporus, UniProt O42713+Q00024+C7FF04+C7FF05)
Experiment: Competitive inhibition of mushroom tyrosinase using L-DOPA as substrate assessed as inhibition constant by Lineweaver-Burk plots analysis
Format: protein assay

Row | Ki | SMILES
1 | 1.41 µM | Cc1ccc2[nH]c(=O)c(O)cc2c1

Molecular target: T2, Tyrosinase (Homo sapiens, UniProt P14679)
T2 sequence (P14679 whole entry): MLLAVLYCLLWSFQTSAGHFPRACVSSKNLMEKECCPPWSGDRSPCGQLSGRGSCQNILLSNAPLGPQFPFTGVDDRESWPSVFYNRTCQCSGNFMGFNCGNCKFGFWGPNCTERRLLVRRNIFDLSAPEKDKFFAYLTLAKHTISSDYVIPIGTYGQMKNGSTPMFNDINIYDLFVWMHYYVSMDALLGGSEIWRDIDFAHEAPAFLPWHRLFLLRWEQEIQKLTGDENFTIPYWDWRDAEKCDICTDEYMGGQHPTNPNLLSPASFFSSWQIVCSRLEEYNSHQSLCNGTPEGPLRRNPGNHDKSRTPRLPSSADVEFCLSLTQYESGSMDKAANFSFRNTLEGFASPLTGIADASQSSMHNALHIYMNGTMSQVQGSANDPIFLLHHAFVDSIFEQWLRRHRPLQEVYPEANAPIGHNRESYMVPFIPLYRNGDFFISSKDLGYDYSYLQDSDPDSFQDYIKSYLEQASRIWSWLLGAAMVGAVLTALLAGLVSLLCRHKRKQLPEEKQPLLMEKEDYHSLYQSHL
Experiment: Inhibition of human tyrosinase

Row | IC50 | SMILES
2 | 26 µM | O=c1oc2ccccc2cc1O [3-HYDROXYCOUMARIN]

Molecular target: T1, Mushroom tyrosinase
Experiment: Inhibition of mushroom tyrosinase using L-DOPA as substrate by spectrophotometric analysis
Format: protein assay

Row | SMILES | IC50
3 | CC(C)C(=O)Nc1nc(-c2ccc(O)cc2O)cs1 | 0.13 µM
4 | Cc1ccc2[nH]c(=O)c(O)cc2c1 | 6.11 µM
5 | O=c1[nH]c2cccc(Cl)c2cc1O | 92.7 µM
6 | Cc1cc(C)c2cc(O)c(=O)[nH]c2c1 | 926 µM
7 | Cc1cc2cc(O)c(=O)[nH]c2cc1C | 43.5 µM

Other lines, results leading:

Row | IC50 | SMILES
8 | 2.74 µM | O=c1[nH]c2ccccc2cc1O
9 | 2.52 µM | O=c1[nH]c2ccc(Br)cc2cc1O
10 | 173 µM | Cc1ccc2cc(O)c(=O)[nH]c2c1
11 | 3.57 µM | O=c1[nH]c2ccc(F)cc2cc1O
12 | 2.49 µM | O=c1oc2ccccc2cc1O [3-HYDROXYCOUMARIN]
